Reference: patent US10604535B2, “Compounds, compositions and methods” (Denali Therapeutics Inc., priority 2016, dated 2020)
Like-named read-outs stand apart in the source and are kept apart here.

Legend:
[1] = test system: human cryopreserved hepatocytes; test: Metabolic stability (hepatocytes); details: human cryopreserved hepatocytes
Procedure: The metabolic stability of compounds was evaluated in human cryopreserved hepatocytes (BioreclamationlVT, NY, USA) in duplicate. Test articles (or controls) were added to a 24-well incubation plate (Becton Dickinson Labware, USA) containing 0.5×10^6 hepatocytes/mL in suspension. The plate was held at 37° C. and agitated with constant orbital shaking (orbital speed at 350 rpm). At each time point (0, 5, 10, 15, 20, 30, 45, 60, 90, 120, 150 and 180 min) a Tecan Evo robot aspirated 50 μL of the incubation mixture and 100 μL of acetonitrile containing internal standard to quench the reaction. […] Samples were centrifuged (3000 rpm for 10 minutes) and the plate sealed prior to injection onto an LC-MS/MS system.
The appropriate parent/daughter ions were monitored for the test article and IS with the LC-MS/MS system. The intrinsic clearance (Clint; expressed μL/min/million cells) was determined from the first order elimination constant (k, min^−1) of test article decay and the volume of the incubation. […] The intrinsic organ CL was then converted to the hepatic clearance (CLhep) using the well-stirred model as shown below, where Qh is human hepatic blood flow.
Hepatic clearance is expressed as mL/min/kg. The hepatic clearance relates to the flow of blood through the liver that is completely cleared of the compound.

GST-hRIPK1 (8-327) [2] = target: T1, GST-hRIPK1 (8-327) (Homo sapiens (Human), UniProt Q13546); test: Fluorescent Polarization Binding (FP Binding) assay
GST-hRIPK1 (8-327) [3] = target: T1, GST-hRIPK1 (8-327); test: ADP-Glo kinase assay; type: biochemical
Procedure: GST-hRIPK1 (8-327) enzyme was generated by Proteros GmbH by Baculovirus expression system.
Test compounds were diluted in DMSO and 0.1 μL of solution was dispensed to each well of a 384-well white solid microplate. The assay buffer was 50 mM HEPES pH 7.5, 50 mM NaCl, 30 mM MgCl2. The buffer was supplemented with 0.02% CHAPS, 0.01% of Pluronic F127, 0.1 mg/mL BSA and 1 mM DTT. MnCl2, 5 mM, was included in the assay buffer on the day of the experiment. The enzymatic reaction comprised 1.5 μg/mL GST-hRIPK1 (8-327) and 50 μM ATP for receptor interacting protein kinase 1 and 15 μM ATP. 5 μL of enzyme and 5 μL of ATP were added to the plate at twice the final assay concentration and incubated at room temperature for 3 hours. Following this reaction, 10 μL of ADP-Glo reagent (Promega) was added to each well and incubated for 40 min at room temperature. This stops the kinase reaction and depletes any remaining ATP. 20 μL of ADP-Glo detection reagent was then added to each well and incubated at room temperature for at least 15 minutes. The detection reagent converts ADP to ATP and introduces luciferase and luciferin to detect ATP. The luminescence is then measured with the Envision (PerkinElmer) plate reader. Test compound inhibition was expressed as percent inhibition of internal assay controls. For concentration response curves, normalized data is fit and IC50 determined using XL-fit (IDBS) for Excel. The IC50 were averaged to determine a mean value, for a minimum of two independent experiments.
Test compound inhibition was expressed as percent inhibition of internal assay controls. For concentration response curves, normalized data is fit and IC50 determined using XL-fit (IDBS) for Excel. The IC50 were averaged to determine a mean value, for a minimum of two independent experiments.

[4] = test system: FADD-deficient Jurkat cells; test: Cellular necroptosis assay (human TNFα-induced necrosis, CellTiter-Glo); type: cell-based; details: Homo sapiens, Jurkat, 48 h, read-out: Cell IC50

T1 sequence (Q13546 8-327): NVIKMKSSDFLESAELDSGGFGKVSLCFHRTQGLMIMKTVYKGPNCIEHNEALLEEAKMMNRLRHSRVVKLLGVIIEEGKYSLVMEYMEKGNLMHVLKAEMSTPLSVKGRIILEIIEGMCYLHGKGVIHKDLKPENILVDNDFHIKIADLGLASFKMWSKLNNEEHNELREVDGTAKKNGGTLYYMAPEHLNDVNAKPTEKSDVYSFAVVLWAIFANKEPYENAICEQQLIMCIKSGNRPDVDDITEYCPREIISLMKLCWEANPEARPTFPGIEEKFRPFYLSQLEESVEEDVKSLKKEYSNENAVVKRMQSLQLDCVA

Human hepatocyte CLhep Avg [1] | IC50 (GST-hRIPK1 (8-327) [2]) | SMILES | IC50 ([4]; TNFα 10 ng/mL) | further results
12 mL/min/kg | 0.0001 to 1 µM | CN1C(=O)[C@@H](NC(=O)c2nnc(Cc3ccccc3)o2)CCc2cccnc21 [Example 148A, (S)-5-benzyl-N-(9-methyl-8-oxo-6,7,8,9-tetrahydro-5H-pyrido[2,3-b]azepin-7-yl)-1,3,4-oxadiazole-2-carboxamide] | – | –
11 mL/min/kg | 0.0001 to 1 µM | [2H]C([2H])([2H])N1C(=O)[C@@H](NC(=O)c2nn(Cc3ccccc3)cc2F)[C@@H](C)Oc2ncccc21 [Example 205, 1-benzyl-N-((3S,4R)-1-trideuteriomethyl-4-methyl-2-oxo-1,2,3,4-tetrahydropyrido[2,3-b][1,4]oxazepin-3-yl)-4-fluoro-1H-pyrazole-3-carboxamide] | – | –
0 mL/min/kg | 0.0001 to 1 µM | CN1C(=O)[C@@H](NC(=O)c2nnc(Cc3cccc(C#N)c3)[nH]2)COc2ccccc21 [Example 163, (S)-5-(3-cyanobenzyl)-N-(5-methyl-4-oxo-2,3,4,5-tetrahydrobenzo[b][1,4]oxazepin-3-yl)-4H-1,2,4-triazole-3-carboxamide] | – | –
0 mL/min/kg | 0.0001 to 1 µM | CN1C(=O)[C@@H](NC(=O)c2nnc(Cc3cccc(C#N)c3)[nH]2)COc2cccnc21 [Example 161, (S)-5-(3-cyanobenzyl)-N-(5-methyl-4-oxo-2,3,4,5-tetrahydropyrido[3,2-b][1,4]oxazepin-3-yl)-4H-1,2,4-triazole-3-carboxamide] | – | –
3.1 mL/min/kg | 0.0001 to 1 µM | N#Cc1cccc(Cn2cc(F)c(C(=O)N[C@@H]3C(=O)Nc4c(F)cc(F)cc4[C@@H]4C[C@H]34)n2)c1 [Example 170A, 1-(3-cyanobenzyl)-N-((1aS,2S,8bR)-5,7-difluoro-3-oxo-1,1a,2,3,4,8b-hexahydrobenzo[b]cyclopropa[d]azepin-2-yl)-4-fluoro-1H-pyrazole-3-carboxamide] | – | –
– | 0.0001 to 1 µM | [2H]C([2H])([2H])N1C(=O)[C@@H](NC(=O)c2nn(Cc3ccccc3)cc2F)[C@H]2C[C@H]2c2cc(C#N)ccc21 [Example 206, 1-benzyl-N-((1aS,2S,8bR)-7-cyano-4-trideuteriomethyl-3-oxo-1,1a,2,3,4,8b-hexahydrobenzo[b]cyclopropa[d]azepin-2-yl)-4-fluoro-1H-pyrazole-3-carboxamide] | 0.0001 to 1 µM | –
– | 0.0001 to 1 µM | Cc1nc2c(s1)CC[C@H](NC(=O)c1nnc(Cc3ccccc3)o1)C(=O)N2C [Example 200, (S)-5-benzyl-N-(2,4-dimethyl-5-oxo-5,6,7,8-tetrahydro-4H-thiazolo[4,5-b]azepin-6-yl)-1,3,4-oxadiazole-2-carboxamide] | 0.0001 to 1 µM | –
16 mL/min/kg | 0.0001 to 1 µM | CN1C(=O)[C@@H](NC(=O)c2cc(Cc3ccccc3)on2)COc2cccnc21 [Example 142, (S)-5-Benzyl-N-(5-methyl-4-oxo-2,3,4,5-tetrahydropyrido[3,2-b][1,4]oxazepin-3-yl)isoxazole-3-carboxamide] | – | –

The next lines start with the compound.

SMILES | Human hepatocyte CLhep Avg [1] | IC50 (GST-hRIPK1 (8-327) [2]) | IC50 ([4]; TNFα 10 ng/mL) | further results
O=C(N[C@H]1COC[C@@H]2CCCN2C1=O)c1cc(Cc2ccccc2)on1 [Example 22, 5-benzyl-N-((4S,9aS)-5-oxohexahydro-1H,3H-pyrrolo[2,1-c][1,4]oxazepin-4-yl)isoxazole-3-carboxamide] | – | – | – | IC50 (GST-hRIPK1 (8-327) [3]): > 10 µM
O=C(N[C@H]1COC[C@H]2CCCN2C1=O)c1cc(Cc2ccccc2)on1 [Example 21, 5-benzyl-N-((4S,9aR)-5-oxohexahydro-1H,3H-pyrrolo[2,1-c][1,4]oxazepin-4-yl)isoxazole-3-carboxamide] | – | – | – | IC50 (GST-hRIPK1 (8-327) [3]): > 10 µM
CN1C(=O)[C@@H](NC(=O)c2cc(Cc3ccccc3)on2)COc2ccccc21 [C, reference compound] | 19 mL/min/kg | – | 0.001 µM | –
CN1C(=O)[C@@H](NC(=O)c2nnc(Cc3ccccc3)s2)[C@H]2C[C@H]2c2nccnc21 [Example 198, 5-benzyl-N-((7S,7aS,8aR)-5-methyl-6-oxo-5,6,7,7a,8,8a-hexahydrocyclopropa[d]pyrazino[2,3-b]azepin-7-yl)-1,3,4-thiadiazole-2-carboxamide] | 8.5 mL/min/kg | 0.0001 to 1 µM | – | –
Cc1cc(C(=O)N[C@H]2COc3ccccc3N(C)C2=O)n(Cc2ccccc2)n1 [Example 16, (S)-1-benzyl-3-methyl-N-(5-methyl-4-oxo-2,3,4,5-tetrahydrobenzo[b][1,4]oxazepin-3-yl)-1H-pyrazole-5-carboxamide] | – | – | – | IC50 (GST-hRIPK1 (8-327) [3]): > 10 µM
CN1C(=O)[C@@H](NC(=O)c2cnn3c2[C@@H](c2ccccc2)CC3)COc2ccccc21 [Example 17, (R)—N—((S)-5-methyl-4-oxo-2,3,4,5-tetrahydrobenzo[b][1,4]oxazepin-3-yl)-4-phenyl-5,6-dihydro-4H-pyrrolo[1,2-b]pyrazole-3-carboxamide] | – | – | – | IC50 (GST-hRIPK1 (8-327) [3]): > 10 µM
CN1CC(NC(=O)c2nnc(Cc3ccccc3)[nH]2)CCc2ccccc21 (stereo not drawn) [Example 20, 5-benzyl-N-(1-methyl-2,3,4,5-tetrahydro-1H-benzo[b]azepin-3-yl)-4H-1,2,4-triazole-3-carboxamide] | – | – | – | IC50 (GST-hRIPK1 (8-327) [3]): 1 to 10 µM
CN1CCCC[C@H](NC(=O)c2nnc(Cc3ccccc3)[nH]2)C1=O [Example 23, (S)-5-benzyl-N-(1-methyl-2-oxoazepan-3-yl)-4H-1,2,4-triazole-3-carboxamide] | – | – | – | IC50 (GST-hRIPK1 (8-327) [3]): > 10 µM
CN1C(=O)[C@@H](NC(=O)c2cc(Cc3ccccc3)on2)[C@H]2C[C@H]2c2nccnc21 [Example 197, 5-benzyl-N-((7S,7aS,8aR)-5-methyl-6-oxo-5,6,7,7a,8,8a-hexahydrocyclopropa[d]pyrazino[2,3-b]azepin-7-yl)isoxazole-3-carboxamide] | 13 mL/min/kg | 0.0001 to 1 µM | – | –
CN1C(=O)[C@@H](NC(=O)c2cc(C3(c4ccccc4)CC3)on2)COc2cccnc21 [Example 77, (S)—N-(5-methyl-4-oxo-2,3,4,5-tetrahydropyrido[3,2-b][1,4]oxazepin-3-yl)-5-(1-phenylcyclopropyl)isoxazole-3-carboxamide] | 19 mL/min/kg | – | – | –
CN1C(=O)[C@@H](NC(=O)c2cn(Cc3ccccc3)nn2)[C@H]2C[C@H]2c2nccnc21 [Example 195, 1-benzyl-N-((7S,7aS,8aR)-5-methyl-6-oxo-5,6,7,7a,8,8a-hexahydrocyclopropa[d]pyrazino[2,3-b]azepin-7-yl)-1H-1,2,3-triazole-4-carboxamide] | 7.1 mL/min/kg | 0.0001 to 1 µM | – | –
Cc1c(Cl)c(C(=O)N[C@H]2COc3ccccc3N(C)C2=O)nn1Cc1ccccc1 [Example 4, (S)-1-benzyl-4-chloro-5-methyl-N-(5-methyl-4-oxo-2,3,4,5-tetrahydrobenzo[b][1,4]oxazepin-3-yl)-1H-pyrazole-3-carboxamide] | – | 0.0001 to 1 µM | 0.0001 to 1 µM | –
C[C@H]1Oc2cccnc2N(C)C(=O)[C@H]1NC(=O)c1ncc(Cc2ccccc2)s1 [Example 124, 5-benzyl-N-((2R,3S)-2,5-dimethyl-4-oxo-2,3,4,5-tetrahydropyrido[3,2-b][1,4]oxazepin-3-yl)thiazole-2-carboxamide] | – | 0.0001 to 1 µM | 0.0001 to 1 µM | –
CN1C(=O)[C@@H](NC(=O)c2nnc(Cc3ccccc3)[nH]2)CC2(CC2)c2ccccc21 [Example 44, (S)-5-benzyl-N-(1-methyl-2-oxo-1,2,3,4-tetrahydrospiro[benzo[b]azepine-5,1′-cyclopropan]-3-yl)-4H-1,2,4-triazole-3-carboxamide] | – | 0.0001 to 1 µM | 0.0001 to 1 µM | –
CN1C(=O)[C@@H](NC(=O)c2nn(Cc3ccccc3)cc2F)CCc2c1cnn2C [Example 114A, (S)-1-benzyl-N-(1,4-dimethyl-5-oxo-1,4,5,6,7,8-hexahydropyrazolo[4,3-b]azepin-6-yl)-4-fluoro-1H-pyrazole-3-carboxamide] | – | 0.0001 to 1 µM | 0.0001 to 1 µM | –
CN1C(=O)[C@@H](NC(=O)c2nnc(Cc3ccccc3)s2)[C@H]2C[C@H]2c2cccnc21 [Example 120A, 5-benzyl-N-((1aS,2S,8bR)-4-methyl-3-oxo-1,1a,2,3,4,8b-hexahydrocyclopropa[d]pyrido[2,3-b]azepin-2-yl)-1,3,4-thiadiazole-2-carboxamide] | – | 0.0001 to 1 µM | 0.0001 to 1 µM | –
O=C(N[C@@H]1C(=O)Nc2ncccc2[C@@H]2C[C@H]12)c1nnc(Cc2ccccc2)[nH]1 [Example 110B, 5-benzyl-N-((1aS,2S,8bR)-3-oxo-1,1a,2,3,4,8b-hexahydrocyclopropa[d]pyrido[2,3-b]azepin-2-yl)-4H-1H-1,2,4-triazole-3-carboxamide] | – | 0.0001 to 1 µM | 0.0001 to 1 µM | –
CN1C(=O)[C@@H](NC(=O)c2cc(F)n(Cc3ccccc3)n2)COc2cccnc21 [Example 165, (S)-1-benzyl-5-fluoro-N-(5-methyl-4-oxo-2,3,4,5-tetrahydropyrido[3,2-b][1,4]oxazepin-3-yl)-1H-pyrazole-3-carboxamide] | – | 0.0001 to 1 µM | – | IC50 [4]: 0.0001 to 1 µM
